Article PMC3893112 (Journal of medicinal chemistry, 2013)

Key:
[1] = target: T1, human κ opioid receptor over-expressed in CHO cells (Homo sapiens, UniProt P41145); assay: [35S]GTPγS binding assay, agonist mode, κ; assay type: biochemical
[2] = target: T1, human κ opioid receptor over-expressed in CHO cells; assay: Inhibition of κ agonist-stimulated [35S]GTPγS binding; assay type: biochemical; settings: for Antagonist κ, U50,488 Ke: vs κ agonist-stimulated [35S]GTPγS binding
[3] = target: T2, human δ opioid receptor over-expressed in CHO cells (Homo sapiens, UniProt P41143); assay: [35S]GTPγS binding assay, agonist mode, δ; assay type: biochemical; settings: for Agonist activity at the δ receptor (in words): [35S]GTPγS
[4] = target: T2, human δ opioid receptor over-expressed in CHO cells; assay: Inhibition of DPDPE-stimulated [35S]GTPγS binding; assay type: biochemical; settings: for Antagonist δ, DPDPE Ke: vs DPDPE-stimulated [35S]GTPγS binding
[5] = target: human μ opioid receptor over-expressed in CHO cells (Homo sapiens, UniProt P35372); assay: [35S]GTPγS binding assay, agonist mode, μ; assay type: biochemical
human MOR = human MOR (Homo sapiens, UniProt P35372); assay: Competition radioligand binding, [3H]DAMGO; settings: Ki vs Kd of DAMGO
human MOR, sequence (P35372 whole entry): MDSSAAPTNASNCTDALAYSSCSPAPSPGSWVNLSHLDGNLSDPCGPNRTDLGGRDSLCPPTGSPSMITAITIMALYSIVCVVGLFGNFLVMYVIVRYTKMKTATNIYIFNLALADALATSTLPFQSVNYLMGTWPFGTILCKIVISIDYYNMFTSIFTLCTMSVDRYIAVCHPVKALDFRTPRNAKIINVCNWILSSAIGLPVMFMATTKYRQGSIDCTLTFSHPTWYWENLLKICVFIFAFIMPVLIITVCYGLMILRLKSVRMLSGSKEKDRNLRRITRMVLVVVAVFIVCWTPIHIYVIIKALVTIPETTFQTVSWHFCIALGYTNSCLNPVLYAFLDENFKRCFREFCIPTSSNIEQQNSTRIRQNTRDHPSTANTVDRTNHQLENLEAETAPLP

T2 sequence (P41143 whole entry): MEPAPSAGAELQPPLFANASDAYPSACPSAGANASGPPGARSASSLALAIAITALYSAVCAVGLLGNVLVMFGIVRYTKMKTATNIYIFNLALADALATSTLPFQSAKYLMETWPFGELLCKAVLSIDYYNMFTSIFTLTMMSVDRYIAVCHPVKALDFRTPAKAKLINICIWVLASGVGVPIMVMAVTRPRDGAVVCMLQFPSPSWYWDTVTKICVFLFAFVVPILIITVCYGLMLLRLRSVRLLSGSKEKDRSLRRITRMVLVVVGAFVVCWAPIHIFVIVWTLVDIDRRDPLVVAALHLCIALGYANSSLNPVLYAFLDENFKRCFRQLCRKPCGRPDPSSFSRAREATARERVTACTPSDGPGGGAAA
T1 sequence (P41145 whole entry): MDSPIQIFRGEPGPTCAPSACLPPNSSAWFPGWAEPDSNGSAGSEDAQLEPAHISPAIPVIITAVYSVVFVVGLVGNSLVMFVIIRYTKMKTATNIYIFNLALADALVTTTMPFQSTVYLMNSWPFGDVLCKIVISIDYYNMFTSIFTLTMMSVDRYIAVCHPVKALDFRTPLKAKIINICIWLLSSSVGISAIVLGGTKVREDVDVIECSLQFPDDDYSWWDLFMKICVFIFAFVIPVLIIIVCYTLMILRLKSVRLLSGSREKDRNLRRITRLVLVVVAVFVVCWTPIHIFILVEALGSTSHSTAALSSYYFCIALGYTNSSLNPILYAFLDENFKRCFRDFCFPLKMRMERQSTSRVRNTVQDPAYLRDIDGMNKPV
human μ opioid receptor over-expressed in CHO cells, sequence (P35372 whole entry): as the sequence (P35372 whole entry) above

| SMILES | EC50 [1] | Kb [2] | Antagonist κ, U50,488 Ke [2] | EC50 [3] | Kb [4] | IC50 [5] | Antagonist δ, DPDPE Ke [4] | Affinity for MOR compared with DAMGO (human MOR) | Agonist activity at the δ receptor (in words) [3] | EC50 [5] |
| --- | --- | --- | --- | --- | --- | --- | --- | --- | --- | --- |
| C[C@@H]1CN(CCCc2ccccc2)[C@H]2C[C@H](N)C[C@]1(c1cccc(O)c1)C2.Cl.Cl [Compound 5a, (−)-5-(3-hydroxyphenyl)-4-methyl-2-(3-phenylpropyl)-2-azabicyclo[3.3.1]nonan-7-amine] | > 5000 nM | 10.1 ± 3 nM | 10.1 nM |  |  |  |  |  |  |  |
| CCN(C)[C@H]1C[C@H]2C[C@@](c3cccc(O)c3)(C1)[C@H](C)CN2CCCc1ccccc1 [Compound 5g, 7-(N-Ethylmethylamino)-5-(3-hydroxyphenyl)-4-methyl-2-(3-phenylprop-1-yl)-2 azabicyclo[3.3.1]nononane] | > 5000 nM | 93 ± 29 nM |  | > 5000 nM | > 5000 nM |  |  |  |  |  |
| C[C@H]1CN(CCCc2ccccc2)[C@@H]2C[C@@H](N)C[C@@]1(c1cccc(O)c1)C2 [Compound 6, (1S,4R,5R,7S)-7-aminomorphan] | > 5000 nM | 21.7 ± 7 nM | 21.7 nM | > 5000 nM | 25.2 ± 8 nM | 20.6 nM | 25.2 nM |  |  |  |
| C[C@@H]1CN(CCCc2ccccc2)[C@H]2C[C@H](N(C)CC3CC3)C[C@]1(c1cccc(O)c1)C2.Cl.Cl [Compound 5h, 7-(N-Cyclopropylmethylmethylamino)-5-(3-hydroxyphenyl)-4-methyl-2-(3-phenylprop-1-yl)-2-azabicyclo[3.3.1]nononane] |  |  |  |  |  |  |  | higher affinity for MOR than DAMGO |  |  |
| CCN[C@H]1C[C@H]2C[C@@](c3cccc(O)c3)(C1)[C@H](C)CN2CCCc1ccccc1.Cl.Cl [Compound 5c, 7-Ethylamino-5-(3-hydroxyphenyl)-4-methyl-2-(3-phenlylprop-1-yl)-2-azabicyclo[3.3.1]nononane] | > 5000 nM | 60.8 ± 19 nM | 60.8 nM | > 5000 nM | 230 ± 93 nM |  | 230 nM |  | complete loss of agonist activity |  |
| CCCN[C@H]1C[C@H]2C[C@@](c3cccc(O)c3)(C1)[C@H](C)CN2CCCc1ccccc1.Cl.Cl [Compound 5d, 5-(3-Hydroxyphenyl)-4-methyl-2-(3-phenylprop-1-yl)-7-propylamino-2-azabicyclo[3.3.1]nononane] |  |  |  | > 5000 nM | 69.4 ± 16 nM |  | 69.4 nM |  | no agonist activity |  |
| C[C@@H]1CN(CCCc2ccccc2)[C@@H]2CCC[C@]1(c1cccc(O)c1)C2.Cl [Compound 4, 3-[(1R,4S,5S)-4-Methyl-2-(3-phenylpropyl)-2-azabicyclo[3.3.1]non-5-yl]phenol] | > 5000 nM |  |  | > 5000 nM |  |  |  |  |  | > 5000 nM |
| CN[C@H]1C[C@H]2C[C@@](c3cccc(O)c3)(C1)[C@H](C)CN2CCCc1ccccc1.Cl.Cl [Compound 5b, 5-(3-Hydroxyphenyl)-4-methyl-7-methylamino-2-(3-phenylprop-1-yl)-2-azabicyclo[3.3.1]nononane] | > 5000 nM | 43.8 ± 8 nM | 43.8 nM |  |  |  |  | higher affinity for MOR than DAMGO |  |  |
| C[C@@H]1CN(CCCc2ccccc2)[C@H]2C[C@H](NCC3CC3)C[C@]1(c1cccc(O)c1)C2.Cl.Cl [Compound 5e, 7-(N-Cyclopropylmethylamino)-5-(3-hydroxyphenyl)-4-methyl-2-(3-phenylprop-1-yl)-2-azabicyclo[3.3.1]nononane] | > 5000 nM |  |  | > 5000 nM |  |  |  |  |  |  |
| C[C@@H]1CN(CCCc2ccccc2)[C@H]2C[C@H](N(C)C)C[C@]1(c1cccc(O)c1)C2.Cl.Cl [Compound 5f, 7-Dimethylamino-5-(3-hydroxyphenyl)-4-methyl-2-(3-phenylprop-1-yl)-2-azabicyclo[3.3.1]nononane] | > 5000 nM | 176 ± 50 nM | 176 nM |  |  |  |  | higher affinity for MOR than DAMGO |  |  |
